For orientation: inhibition means the change of the read-out against control, counted positive when it falls. The IC50 is the concentration that inhibits the measured activity by half. A low value points to higher potency.

Holding throughout (assay type): biochemical
For test [1], the target named is T1, sirt3 (Homo sapiens, UniProt Q9NTG7).
T1 construct: sirt3_118–395 (His6-tagged)
T1 sequence (Q9NTG7 118-395): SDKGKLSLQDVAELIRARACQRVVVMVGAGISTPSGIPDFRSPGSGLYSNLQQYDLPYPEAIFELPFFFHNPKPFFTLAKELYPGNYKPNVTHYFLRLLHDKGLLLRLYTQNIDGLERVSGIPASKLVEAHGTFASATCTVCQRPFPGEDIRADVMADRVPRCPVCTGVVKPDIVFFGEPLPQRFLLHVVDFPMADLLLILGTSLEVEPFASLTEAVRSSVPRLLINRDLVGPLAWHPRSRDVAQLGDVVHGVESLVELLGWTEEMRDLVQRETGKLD
Description: fluorescent deacetylase assay, % inhibition at […]. The settings on record: read-out: Sirt 3 (μM or % Inhibition).

Test [2] has as its target T2, sirt1 (Homo sapiens, UniProt Q96EB6).
T2 construct: sirt1_133–747 (GST-tagged)
T2 sequence (Q96EB6 133-747): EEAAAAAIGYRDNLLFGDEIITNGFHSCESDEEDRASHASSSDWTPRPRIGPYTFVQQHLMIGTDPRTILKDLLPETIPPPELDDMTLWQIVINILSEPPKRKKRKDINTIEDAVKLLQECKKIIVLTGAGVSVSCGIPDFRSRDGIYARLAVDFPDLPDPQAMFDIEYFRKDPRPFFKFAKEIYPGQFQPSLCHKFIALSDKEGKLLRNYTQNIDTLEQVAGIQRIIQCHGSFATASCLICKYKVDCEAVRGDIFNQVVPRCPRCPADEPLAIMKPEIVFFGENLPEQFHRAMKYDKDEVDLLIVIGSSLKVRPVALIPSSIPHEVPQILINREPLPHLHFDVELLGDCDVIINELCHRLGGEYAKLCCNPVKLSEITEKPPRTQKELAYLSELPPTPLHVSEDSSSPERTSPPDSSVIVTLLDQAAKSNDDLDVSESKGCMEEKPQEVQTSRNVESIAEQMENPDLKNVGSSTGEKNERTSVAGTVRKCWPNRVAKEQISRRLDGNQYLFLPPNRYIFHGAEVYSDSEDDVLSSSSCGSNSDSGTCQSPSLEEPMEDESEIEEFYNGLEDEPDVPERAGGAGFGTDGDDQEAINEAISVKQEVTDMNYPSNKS
Description: fluorescent deacetylase assay (ZMAL substrate, trypsin-coupled).

The target in test [3] is T3, sirt2 (Homo sapiens, UniProt Q8IXJ6).
T3 sequence (Q8IXJ6 56-356): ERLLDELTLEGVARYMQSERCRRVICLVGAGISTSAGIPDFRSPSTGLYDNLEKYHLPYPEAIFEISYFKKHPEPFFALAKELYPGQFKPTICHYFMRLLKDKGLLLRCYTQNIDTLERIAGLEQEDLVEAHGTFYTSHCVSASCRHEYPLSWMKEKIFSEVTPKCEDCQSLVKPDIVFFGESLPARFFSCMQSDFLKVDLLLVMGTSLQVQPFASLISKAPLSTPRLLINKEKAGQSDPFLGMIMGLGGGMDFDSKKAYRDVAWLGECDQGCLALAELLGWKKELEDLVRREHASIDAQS
The description is as above.

For the compound `COc1cc(O)c(C(=O)/C=C/c2ccc(O)cc2)cc1Oc1ccc(C(=O)/C=C/c2ccc(O)cc2)c(O)c1` [compound 8, rhuschalcone IV], the inhibition at 50 µM in test [1] is 38%. Also, the IC50 in test [2] came out at 46.7 ± 6 µM; in test [3], 48.5 ± 39.5 µM.
Regarding `COc1cc(O)c(C(=O)/C=C/c2ccc(O)cc2)cc1Oc1ccc(C(=O)/C=C/c2ccc(O)cc2O)c(O)c1` [compound 9, rhuschalcone I analogue], the IC50 was determined as 40.8 ± 8.5 µM in test [2] and 44.8 ± 5.1 µM in test [3].

The record behind these values is paper PMC6017733, “Identification of Bichalcones as Sirtuin Inhibitors by Virtual Screening and In Vitro Testing” (Molecules : A Journal of Synthetic Chemistry and Natural …, 2018).
